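Protocol summary: plate cells (96-well), add compound at 5 concentrations, incubate 48 h, interpolate endpoints linearly. Here, GI50 denotes the concentration required for 50% inhibition of growth.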 Activity calls are given as the source filed them. Cut-off read from the data, not from the text of the source: active = GI50 up to about 1.1 µM and inactive = higher.
Experiments:
Test in all cases: NCI tumour cell line growth inhibition, 48 h
[1] = tested on: HOP-62
[2] = tested on: RXF 393
[3] = tested on: SN12C
[4] = tested on: NCI/ADR-RES
[5] = tested on: M14
[6] = tested on: A498
[7] = tested on: ACHN
[8] = tested on: NCI-H522
[9] = tested on: MCF7
[10] = tested on: COLO 205
[11] = tested on: A549
[12] = tested on: DU-145
[13] = tested on: IGROV-1
[14] = tested on: SK-MEL-2
[15] = tested on: MDA-MB-435
[16] = tested on: KM12
[17] = tested on: HT-29
[18] = tested on: OVCAR-8
[19] = tested on: HCT-15
[20] = tested on: DMS-273

SMILES | GI50 [1] | GI50 [2] | GI50 [3] | GI50 [4] | GI50 [5] | GI50 [6] | GI50 [7] | GI50 [8] | GI50 [9] | GI50 [10] | GI50 [11] | GI50 [12] | GI50 [13] | GI50 [14] | GI50 [15] | GI50 [16] | GI50 [17] | GI50 [18] | GI50 [19] [µM] | GI50 [20]
COc1ccc(Cc2ccccc2C(=O)O)c2ccccc12 | 36.6 µM (inactive) | 44.3 µM (inactive) | 29.2 µM (inactive) | 32.5 µM (inactive) | 35.6 µM (inactive) | 22.8 µM (inactive) | 31.2 µM (inactive) | 20.3 µM (inactive) | 38.1 µM (inactive) | 17.9 µM (inactive) | 33 µM (inactive) | 37.5 µM (inactive) | 30.6 µM (inactive) | 22.2 µM (inactive) | 22 µM (inactive) | 18.7 µM (inactive) | 28.8 µM (inactive) | 28.5 µM (inactive) | 28.2 | –
Cc1ccc2nc(NC(=O)C(=O)CC(=O)c3cccc4ccccc34)sc2c1 | 22.2 µM (inactive) | – | 52 µM (inactive) | – | 19.6 µM (inactive) | 63.5 µM (inactive) | 41.9 µM (inactive) | – | – | 60.4 µM (inactive) | 33.6 µM (inactive) | – | 31.7 µM (inactive) | 35.5 µM (inactive) | – | 29.1 µM (inactive) | 36 µM (inactive) | 23.4 µM (inactive) | 59.2 | 40.4 µM (inactive)
O=C(c1ccsc1)c1nccc2c1cnc1ccccc12 | 25.5 µM (inactive) | 84.9 µM (inactive) | > 100 µM (inactive) | > 100 µM (inactive) | > 100 µM (inactive) | 75 µM (inactive) | > 100 µM (inactive) | 12.7 µM (inactive) | 47.2 µM (inactive) | > 100 µM (inactive) | > 100 µM (inactive) | > 100 µM (inactive) | 0.286 µM (active) | > 100 µM (inactive) | > 100 µM (inactive) | > 100 µM (inactive) | > 100 µM (inactive) | > 100 µM (inactive) | > 100 | –
CCC1NCC(=O)c2c1[nH]c1ccccc21 (centres undefined) | – | – | > 100 µM (inactive) | – | > 100 µM (inactive) | > 100 µM (inactive) | > 100 µM (inactive) | 91.6 µM (inactive) | – | > 100 µM (inactive) | > 100 µM (inactive) | – | > 100 µM (inactive) | > 100 µM (inactive) | – | > 100 µM (inactive) | > 100 µM (inactive) | > 100 µM (inactive) | > 100 | > 100 µM (inactive)
O=C1C=CC(=O)c2c1cc([N+](=O)[O-])c1ccoc21 | 16.5 µM (inactive) | 1.97 µM (inactive) | 15.2 µM (inactive) | 22.6 µM (inactive) | 6.17 µM (inactive) | 15.5 µM (inactive) | 1.82 µM (inactive) | 2.07 µM (inactive) | 14.3 µM (inactive) | 2.49 µM (inactive) | 20.9 µM (inactive) | 9.06 µM (inactive) | 17.7 µM (inactive) | 18.4 µM (inactive) | 11.7 µM (inactive) | 15.9 µM (inactive) | 17.3 µM (inactive) | 26.2 µM (inactive) | 23.3 | –
CCCOC(=O)C1CCC(=O)N1C(=O)C(C)Cl (centres undefined) | > 100 µM (inactive) | – | > 100 µM (inactive) | – | > 100 µM (inactive) | > 100 µM (inactive) | > 100 µM (inactive) | > 100 µM (inactive) | – | > 100 µM (inactive) | > 100 µM (inactive) | – | > 100 µM (inactive) | > 100 µM (inactive) | – | > 100 µM (inactive) | > 100 µM (inactive) | > 100 µM (inactive) | > 100 | > 100 µM (inactive)
O=C(O)CNCc1c2ccccc2[n+]([O-])c2ccccc12 | > 100 µM (inactive) | – | 73.6 µM (inactive) | – | > 100 µM (inactive) | > 100 µM (inactive) | 57.4 µM (inactive) | 46.1 µM (inactive) | – | > 100 µM (inactive) | > 100 µM (inactive) | – | 91.6 µM (inactive) | > 100 µM (inactive) | – | 51.1 µM (inactive) | 57.1 µM (inactive) | 80.5 µM (inactive) | 30.8 | 46.7 µM (inactive)
CSc1cc(Cl)c(C)cc1S(=O)(=O)NC(=O)NNc1ccc(C)cc1 | > 100 µM (inactive) | > 100 µM (inactive) | > 100 µM (inactive) | 64.3 µM (inactive) | > 100 µM (inactive) | > 100 µM (inactive) | 30.7 µM (inactive) | > 100 µM (inactive) | > 100 µM (inactive) | > 100 µM (inactive) | > 100 µM (inactive) | 48.9 µM (inactive) | > 100 µM (inactive) | 93.3 µM (inactive) | > 100 µM (inactive) | 78.3 µM (inactive) | > 100 µM (inactive) | > 100 µM (inactive) | > 100 | –
